# According to paper PMC9848300, “Discovery of novel enasidenib analogues targeting inhibition of mutant isocitrate dehydrogenase 2 as antileukaemic agents” (Journal of Enzyme Inhibition and Medicinal Chemistry, 2023):
# Read-outs that look alike come from different tables or passages of the source.
# Assays:
# [1] = system: MDA-MB-435; experiment: NCI 60 antitumor screening (single dose / five doses); assay type: cell-based; conditions: Homo sapiens; MDA-MB-435 (melanoma), single dose 10 μM; read-out: Growth inhibition percentage (GI %)
# [2] = system: HCT-116; experiment: as above; assay type: cell-based; conditions: Homo sapiens; for inhibition at 10 µM: HCT-116 (colon cancer), single dose 10 μM, read-out: Growth inhibition percentage (GI %)
# [3] = system: TK-10; experiment: NCI 60 antitumor screening (single dose); assay type: cell-based; conditions: Homo sapiens; TK-10 (renal cancer), single dose 10 μM; read-out: Growth inhibition percentage (GI %)
# In short: (§1)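 Values are GI% (100 − G%) from the NCI 60-line single-dose screen, compound at 10 μM.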
# [4] = system: SNB-19; experiment: NCI 60 antitumor screening (single dose); assay type: cell-based; conditions: Homo sapiens; SNB-19 (CNS cancer), single dose 10 μM; read-out: Growth inhibition percentage (GI %)
# In short: as §1
# [5] = system: HCC-2998; experiment: NCI 60 antitumor screening (single dose); assay type: cell-based; conditions: Homo sapiens; HCC-2998 (colon cancer), single dose 10 μM; read-out: Growth inhibition percentage (GI %)
# In short: (§2)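 NCI-60 one-dose screen. Dose: 10 μM. Lines: 60 human tumour lines, nine tissue types. Output: GI% = 100 − G%.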
# [6] = system: MDA-MB-231/ATCC; experiment: NCI 60 antitumor screening (single dose / five doses); assay type: cell-based; conditions: Homo sapiens; for inhibition at 10 µM: MDA-MB-231/ATCC (breast cancer), single dose 10 μM, read-out: Growth inhibition percentage (GI %)
# [7] = system: 786-0; experiment: as above; assay type: cell-based; conditions: Homo sapiens; for inhibition at 10 µM: 786-0, 786-0 (renal cancer), single dose 10 μM, read-out: Growth inhibition percentage (GI %)
# [8] = system: IGROV1; experiment: as above; assay type: cell-based; conditions: Homo sapiens, IGROV-1; for inhibition at 10 µM: IGROV1 (ovarian cancer), single dose 10 μM, read-out: Growth inhibition percentage (GI %)
# [9] = system: NCI/ADR-RES; experiment: as above; assay type: cell-based; conditions: Homo sapiens; for inhibition at 10 µM: NCI/ADR-RES (ovarian cancer), single dose 10 μM, read-out: Growth inhibition percentage (GI %)
# [10] = system: SW-620; experiment: as above; assay type: cell-based, human; conditions: for GI50: read-out: GI50; for inhibition at 10 µM: SW-620 (colon cancer), single dose 10 μM, read-out: Growth inhibition percentage (GI %)
# [11] = system: HOP-92; experiment: as above; assay type: cell-based; conditions: Homo sapiens; for inhibition at 10 µM: HOP-92 (non-small cell lung cancer), single dose 10 μM, read-out: Growth inhibition percentage (GI %)
# [12] = system: CCRF-CEM; experiment: as above; assay type: cell-based; conditions: Homo sapiens; for inhibition at 10 µM: CCRF-CEM (leukaemia), single dose 10 μM, read-out: Growth inhibition percentage (GI %)
# [13] = system: A498; experiment: as above; assay type: cell-based; conditions: Homo sapiens
# [14] = system: MDA-MB-468; experiment: as above; assay type: cell-based; conditions: Homo sapiens; for inhibition at 10 µM: MDA-MB-468 (breast cancer), single dose 10 μM, read-out: Growth inhibition percentage (GI %)
# [15] = system: UO-31; experiment: as above; assay type: cell-based; conditions: Homo sapiens; for inhibition at 10 µM: UO-31 (renal cancer), single dose 10 μM, read-out: Growth inhibition percentage (GI %)
# [16] = system: SF-539; experiment: as above; assay type: cell-based; conditions: Homo sapiens; for inhibition at 10 µM: SF-539 (CNS cancer), single dose 10 μM, read-out: Growth inhibition percentage (GI %)
# [17] = system: 60 human subpanel cancer cell lines; experiment: NCI 60 antitumor screening, mean over the panel (single dose); assay type: cell-based; conditions: mean over 60 cancer cell lines, single dose 10 μM
# In short: as §2
# [18] = system: SF-295; experiment: NCI 60 antitumor screening (single dose / five doses); assay type: cell-based; conditions: Homo sapiens; for inhibition at 10 µM: SF-295 (CNS cancer), single dose 10 μM, read-out: Growth inhibition percentage (GI %)
# [19] = system: SR; experiment: as above; assay type: cell-based; conditions: Homo sapiens; for inhibition at 10 µM: SR (leukaemia), single dose 10 μM, read-out: Growth inhibition percentage (GI %)
# [20] = system: EKVX; experiment: as above; assay type: cell-based; conditions: Homo sapiens; EKVX (non-small cell lung cancer), single dose 10 μM; read-out: Growth inhibition percentage (GI %)
# [21] = system: RPMI-8226; experiment: as above; assay type: cell-based; conditions: Homo sapiens; for inhibition at 10 µM: RPMI-8226 (leukaemia), single dose 10 μM, read-out: Growth inhibition percentage (GI %)
# [22] = system: LOX IMVI; experiment: as above; assay type: cell-based; conditions: Homo sapiens; for inhibition at 10 µM: LOX IMVI (melanoma), single dose 10 μM, read-out: Growth inhibition percentage (GI %)
# [23] = system: SK-MEL-2; experiment: as above; assay type: cell-based; conditions: Homo sapiens; for inhibition at 10 µM: SK-MEL-2 (melanoma), single dose 10 μM, read-out: Growth inhibition percentage (GI %)
# [24] = system: COLO 205; experiment: as above; assay type: cell-based; conditions: Homo sapiens; for inhibition at 10 µM: COLO 205 (colon cancer), single dose 10 μM, read-out: Growth inhibition percentage (GI %)
# [25] = system: UACC-62; experiment: as above; assay type: cell-based; conditions: Homo sapiens; UACC-62 (melanoma), single dose 10 μM; read-out: Growth inhibition percentage (GI %)
# [26] = system: HCT-15; experiment: as above; assay type: cell-based; conditions: Homo sapiens; for inhibition at 10 µM: HCT-15 (colon cancer), single dose 10 μM, read-out: Growth inhibition percentage (GI %)
# [27] = system: BT-549; experiment: as above; assay type: cell-based; conditions: Homo sapiens; for inhibition at 10 µM: BT-549 (breast cancer), single dose 10 μM, read-out: Growth inhibition percentage (GI %)
# [28] = system: RXF 393; experiment: as above; assay type: cell-based; conditions: Homo sapiens; for inhibition at 10 µM: RXF 393 (renal cancer), single dose 10 μM, read-out: Growth inhibition percentage (GI %)
smiles,measurement,setting,value
"Brc1cccc(/C=N/Nc2nc(N/N=C/c3cccc(Br)c3)nc(N3CCOCC3)n2)c1 [compound 6c, 2,4-Bis[(E)-2-[(3-bromophenyl)methylidene]hydrazin-1-yl]-6-(morpholin-4-yl)-1,3,5-triazine]",inhibition at 10 µM,[1],66.6%
same,inhibition at 10 µM,[2],78.8%
same,GI50,"[2]; HCT-116, five doses (0.01–100 μM), read-out: GI50",0.78 µM
same,inhibition at 10 µM,[3],33.2%
same,inhibition at 10 µM,[4],22.1%
same,inhibition at 10 µM,[5],68.5%
same,GI50,"[6]; MDA-MB-231/ ATCC, five doses (0.01–100 μM), read-out: GI50",3.97 µM
same,inhibition at 10 µM,[6],33.9%
same,inhibition at 10 µM,[7],75.5%
same,GI50,"[7]; 786-0, five doses (0.01–100 μM), read-out: GI50",0.53 µM
same,inhibition at 10 µM,[8],57.2%
same,GI50,"[8]; IGROV1, five doses (0.01–100 μM), read-out: GI50",2.92 µM
same,inhibition at 10 µM,[9],58.2%
same,GI50,"[9]; NCI/ADR-RES, five doses (0.01–100 μM), read-out: GI50",3.25 µM
same,GI50,"[10]; Homo sapiens, SW-620, SW-620, five doses (0.01–100 μM)",0.82 µM
same,inhibition at 10 µM,[10]; Homo sapiens,75.3%
same,GI50,"[10]; SW-620, five doses (0.01–100 μM)",0.83 µM
same,inhibition at 10 µM,[11],36.2%
same,GI50,"[11]; HOP-92, five doses (0.01–100 μM), read-out: GI50",1.24 µM
same,inhibition at 10 µM,[12],79%
same,GI50,"[12]; CCRF-CEM, five doses (0.01–100 μM), read-out: GI50",0.57 µM
same,GI50,"[13]; A498, five doses (0.01–100 μM), read-out: GI50",0.14 µM
same,inhibition at 10 µM,[14],98.9%
same,GI50,"[14]; MDA-MB-468, five doses (0.01–100 μM), read-out: GI50",1.91 µM
same,inhibition at 10 µM,[15],74.5%
same,GI50,"[15]; UO-31, five doses (0.01–100 μM), read-out: GI50",1.01 µM
same,inhibition at 10 µM,[16],43.6%
same,GI50,"[16]; SF-539, five doses (0.01–100 μM), read-out: GI50",3.83 µM
same,Mean GI %,[17],66%
same,inhibition at 10 µM,[18],70.9%
same,GI50,"[18]; SF-295, five doses (0.01–100 μM), read-out: GI50",4.94 µM
same,inhibition at 10 µM,[19],92.1%
same,GI50,"[19]; SR, five doses (0.01–100 μM), read-out: GI50",0.16 µM
same,inhibition at 10 µM,[20],51%
same,inhibition at 10 µM,[21],65.8%
same,GI50,"[21]; RPMI-8226, five doses (0.01–100 μM), read-out: GI50",1.68 µM
same,inhibition at 10 µM,[22],94.8%
same,GI50,"[22]; LOX IMVI, five doses (0.01–100 μM), read-out: GI50",2.66 µM
same,inhibition at 10 µM,[23],97.4%
same,GI50,"[23]; SK-MEL-2, five doses (0.01–100 μM)",2.43 µM
same,inhibition at 10 µM,[24],76.2%
same,GI50,"[24]; COLO 205, five doses (0.01–100 μM), read-out: GI50",1.24 µM
same,inhibition at 10 µM,[25],44%
same,inhibition at 10 µM,[26],109%
same,GI50,"[26]; HCT-15, five doses (0.01–100 μM), read-out: GI50",0.42 µM
same,inhibition at 10 µM,[27],47.3%
same,GI50,"[27]; BT-549, five doses (0.01–100 μM), read-out: GI50",3.54 µM
same,inhibition at 10 µM,[28],168%
same,GI50,"[28]; RXF 393, five doses (0.01–100 μM), read-out: GI50",0.16 µM
"Oc1ccc(/C=N/Nc2nc(N/N=C/c3ccc(O)c(O)c3)nc(N3CCCCC3)n2)cc1O [compound 7j, 4-[(1e)-(2-{4-[(E)-2-[(3,4-Dihydroxyphenyl)methylidene]hydrazin-1-yl]-6-(piperidin-1-yl)-1,3,5-triazin-2-yl}hydrazin-1-ylidene)methyl]benzene-1,2-diol]",inhibition at 10 µM,[1],-1.68%
same,inhibition at 10 µM,[2],23.7%
same,inhibition at 10 µM,[3],-3.52%
same,inhibition at 10 µM,[4],13.7%
same,inhibition at 10 µM,[5],-5%
same,inhibition at 10 µM,[6],12.8%
same,inhibition at 10 µM,[7],-1.22%
same,inhibition at 10 µM,[8],5.35%
same,inhibition at 10 µM,[9],-3.16%
same,inhibition at 10 µM,[10]; Homo sapiens,6.35%
same,inhibition at 10 µM,[11],-9.47%
same,inhibition at 10 µM,[12],9.46%
same,inhibition at 10 µM,"[13]; A498 (renal cancer), single dose 10 μM, read-out: Growth inhibition percentage (GI %)",-2.84%
same,inhibition at 10 µM,[14],10.2%
same,inhibition at 10 µM,[15],15.3%
same,inhibition at 10 µM,[16],1.16%
same,Mean GI %,[17],1.89%
same,inhibition at 10 µM,[18],0.36%
same,inhibition at 10 µM,[19],25.9%
same,inhibition at 10 µM,[20],1.58%
same,inhibition at 10 µM,[21],-7.6%
same,inhibition at 10 µM,[22],6.65%
same,inhibition at 10 µM,[23],9.62%
same,inhibition at 10 µM,[24],-6.39%
same,inhibition at 10 µM,[25],3.56%
same,inhibition at 10 µM,[26],16.1%
same,inhibition at 10 µM,[27],1.47%
same,inhibition at 10 µM,[28],-17.8%
